The record followed here is ChEMBL document CHEMBL5226384, “Total Syntheses, Absolute Configurations, and Cytotoxicity Evaluation of Ugonstilbenes A, B, and C from the Rhizomes of Helminthostachys zeylanica” (J Nat Prod, 2023).

As usually defined, the IC50 is the concentration that gives 50% inhibition.

Data set [1] can be described thus: Cytotoxicity against fibroblast (unknown origin) cells assessed as reduction in cell viability incubated for 6 hrs by SRB assay. In kind it is toxicity, cell-based.
A further data set concerns HT-29. Briefly: Cytotoxicity against human HT-29 cells assessed as reduction in cell viability incubated for 6 hrs by SRB assay. Type of data set: functional, cell-based. Particulars: HT-29, 6 h. A general note: In SRB staining, fixed cells bind dye roughly in proportion to their protein.
The next data set deals with MCF7. Briefly: Cytotoxicity against human MCF7 cells assessed as reduction in cell viability incubated for 6 hrs by SRB assay. In kind it is functional, cell-based. Particulars: MCF7, 6 h.
The test system of another data set is CCRF-CEM. Briefly: Cytotoxicity against human CCRF-CEM cells assessed as reduction in cell viability incubated for 6 hrs by SRB assay. In kind it is functional, cell-based.
A further data set has as its system NCI-H460. The data set is described as follows: Cytotoxicity against human NCI-H460 cells assessed as reduction in cell viability incubated for 6 hrs by SRB assay. Type of data set: functional, cell-based. Particulars: NCI-H460, 6 h.

On to `CC1=CCCC(C)(C)[C@@H]1Cc1cc(/C=C/c2cc(O)cc(O)c2)ccc1O`, for which the IC50 at 6 h in data set [1] was found to be 7100 nM. The IC50 stood at 5200 nM in the data set with HT-29, 4100 nM in the data set on MCF7, 3000 nM in the data set with CCRF-CEM and 5500 nM with NCI-H460.

As for `CC1=CCCC(C)(C)[C@H]1Cc1cc(/C=C/c2cc(O)cc(O)c2)ccc1O`, the IC50 at 6 h in data set [1] was 7400 nM. Also, the concentration for half-maximal inhibition (IC50) in the data set on HT-29 is 5000 nM; in the data set with MCF7, 4400 nM; in the data set with CCRF-CEM, 2800 nM; with NCI-H460 it was 6000 nM.

With `CC1(C)CCC[C@]2(C)Oc3cc(/C=C/c4ccc(O)cc4)cc(O)c3C[C@H]12`, in data set [1], the IC50 at 6 h was found to be 6600 nM. The IC50 with HT-29 stood at 3600 nM; in the data set with MCF7, 1900 nM; in the data set with CCRF-CEM, 1700 nM; in the data set with NCI-H460, 1400 nM.

As for `CC1(C)CCC[C@]2(C)Oc3ccc(/C=C/c4cc(O)cc(O)c4)cc3C[C@H]12`, in data set [1], the IC50 at 6 h came out at 8000 nM. The IC50 in the data set on HT-29 amounted to 3300 nM; with MCF7, 1700 nM; with CCRF-CEM, 1400 nM; with NCI-H460, 2200 nM.

In the case of `CC1=CCCC(C)(C)[C@H]1Cc1c(O)cc(/C=C/c2ccc(O)cc2)cc1O`, in data set [1], the IC50 at 6 h was 6600 nM. In addition, the half-maximal inhibitory concentration (IC50) with HT-29 came to 2500 nM; with MCF7, 1700 nM; with CCRF-CEM, 820 nM; in the data set with NCI-H460 it was 1700 nM.

`CC1(C)CCC[C@@]2(C)Oc3cc(/C=C/c4ccc(O)cc4)cc(O)c3C[C@@H]12`: the 50% inhibitory concentration (IC50) at 6 h in data set [1] worked out at 7100 nM. Besides, the half-inhibitory concentration (IC50) came to 2200 nM in the data set on HT-29, 1400 nM in the data set with MCF7, 1100 nM with CCRF-CEM and 1700 nM in the data set with NCI-H460.

`CC1=CCCC(C)(C)[C@@H]1Cc1c(O)cc(/C=C/c2ccc(O)cc2)cc1O`: in data set [1], the IC50 at 6 h turned out to be 6600 nM. In addition, the half-inhibitory concentration (IC50) with HT-29 is 4400 nM; in the data set with MCF7, 8000 nM; with CCRF-CEM it was 270 nM; in the data set on NCI-H460, 1700 nM.

For `CC1(C)CCC[C@@]2(C)Oc3ccc(/C=C/c4cc(O)cc(O)c4)cc3C[C@@H]12`, in data set [1], the half-inhibitory concentration (IC50) at 6 h is 6900 nM. The 50% inhibitory concentration (IC50) stood at 2800 nM with HT-29, 2800 nM in the data set on MCF7, 1400 nM in the data set with CCRF-CEM and 2500 nM with NCI-H460.

`COc1cccc2c1C(=O)c1c(O)c3c(c(O)c1C2=O)C[C@@](O)(C(=O)CO)C[C@@H]3O[C@H]1C[C@H](N)[C@H](O)[C@H](C)O1` [DOXORUBICIN]: the IC50 at 6 h in data set [1] is 67000 nM. Also, the 50% inhibitory concentration (IC50) was found to be 120 nM with HT-29, 270 nM in the data set on MCF7, 90 nM in the data set on CCRF-CEM and 10 nM in the data set with NCI-H460.

`Oc1ccc(/C=C/c2cc(O)cc(O)c2)cc1` [RESVERATROL]: the 50% inhibitory concentration (IC50) at 6 h in data set [1] was 218000 nM. The half-inhibitory concentration (IC50) in the data set on HT-29 worked out at 120000 nM; with MCF7 it was 135000 nM; in the data set with CCRF-CEM, 900 nM; in the data set on NCI-H460, 58000 nM.
